From patent US20100267561A1, “HERBICIDAL PYRIDAZINONE DERIVATIVES” (priority 2007, published 2010)

Key:
Type in all cases: in vivo
[1] = tested on: spring wheat (Triticum aestivum); experiment: Test C pre-/postemergence plant response
How it was run: (§1)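 Plant response was judged by eye against untreated controls following 15 to 25 days in a controlled growth environment, using 0 for no effect and 100 for complete control. Treatments were made both preemergence and postemergence, the latter on plants of 1- to 4-leaf stage.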

[2] = tested on: canola (Brassica rapa); experiment: Test C pre-/postemergence plant response
How it was run: as §1

[3] = tested on: goosegrass (Eleusine indica); experiment: Test E pre-/postemergence plant response; conditions: scale 0 to 100
Excerpt: (§2) Seeds of plant species selected from bermudagrass (Cynodon dactylon), Surinam grass (Brachiaria decumbens), large crabgrass (Digitaria sanguinalis), green foxtail (Setaria viridis), goosegrass (Eleusine indica), johnsongrass (Sorghum halepense), kochia (Kochia scoparia), pitted morningglory (Ipomoea lacunosa), purple nutsedge (Cyperus rotundus), common ragweed (Ambrosia elation), black mustard (Brassica nigra), guineagrass (Panicum maximum), dallisgrass (Paspalum dilatatum), barnyardgrass (Echinochloa crus-galli), southern (S.) sandbur (Cenchrus echinatus), common sowthistle (Sonchus oleraceous), prickly sida (Sida spinosa), Italian ryegrass (Lolium multiflorum), common purslane (Portulaca oleracea), broadleaf signalgrass (Brachiaria platyphylla), common groundsel (Senecio vulgaris), common chickweed (Stellaria media), Virginia (V.) dayflower (Commelina virginica), tropical (T.) spiderwort (Commelina benghalensis), annual bluegrass (Poa annua), naked crabgrass (Digitaria nuda), itchgrass (Rottboellia cochinchinensis), quackgrass (Elytrigia repens), Canada horseweed (Conyza canadensis), field bindweed (Convolvulus arvensis), spanishneedles (Bidens bipinnata), common mallow (Malva sylvestris) and Russian thistle (Salsola kali) were planted and treated preemergence with test chemicals formulated in a non-phytotoxic solvent mixture which included a surfactant. At the same time, plants selected from these weed species were treated with postemergence applications of some of the test chemicals formulated in the same manner. Plants ranged in height from 2 to 18 cm (1- to 4-leaf stage) for postemergence treatments.
(§3) Treated plants and controls were maintained in a greenhouse for 14 to 21 days, after which time all species were compared to controls and visually evaluated. Plant response ratings, summarized in Table E, are based on a scale of 0 to 100 where 0 is no effect and 100 is complete control. A dash (-) response means no test result.

[4] = tested on: large crabgrass (Digitaria sanguinalis); experiment: Test E pre-/postemergence plant response; conditions: scale 0 to 100
Excerpt: as §2, §3

[5] = tested on: quackgrass (Elytrigia repens); experiment: Test E pre-/postemergence plant response; conditions: scale 0 to 100
Excerpt: as §2, §3

[6] = tested on: bermudagrass (Cynodon dactylon); experiment: Test E pre-/postemergence plant response; conditions: scale 0 to 100
Excerpt: as §2, §3

[7] = tested on: broadleaf signalgrass (Brachiaria platyphylla); experiment: Test E pre-/postemergence plant response; conditions: scale 0 to 100
Excerpt: as §2, §3

[8] = tested on: black mustard (Brassica nigra); experiment: Test E pre-/postemergence plant response; conditions: scale 0 to 100
Excerpt: as §2, §3

[9] = tested on: pitted morningglory (Ipomoea lacunosa); experiment: Test E pre-/postemergence plant response; conditions: scale 0 to 100
Excerpt: as §2, §3

[10] = Preemergence, 8 g ai/ha, scale 0 to 100 (0 no effect, 100 complete control)
[11] = Preemergence, 16 g ai/ha, scale 0 to 100 (0 no effect, 100 complete control)
[12] = Preemergence, 31 g ai/ha, scale 0 to 100 (0 no effect, 100 complete control)
[13] = Preemergence, 62 g ai/ha, scale 0 to 100, 0 no effect, 100 complete control
[14] = Postemergence, 8 g ai/ha, scale 0 to 100, 0 no effect, 100 complete control
[15] = Postemergence, 16 g ai/ha, scale 0 to 100, 0 no effect, 100 complete control
[16] = Postemergence, 31 g ai/ha, scale 0 to 100, 0 no effect, 100 complete control
[17] = Postemergence, 62 g ai/ha, scale 0 to 100, 0 no effect, 100 complete control

CCc1cc(-c2ccc(Cl)cc2)nn1-c1c(O)cnn(C)c1=O [Compound 21]
Plant response rating, Wheat, Spring [1, 10]: 30 | Plant response rating, Wheat, Spring [1, 11]: 40 | Plant response rating, Wheat, Spring [1, 12]: 60 | Plant response rating, Wheat, Spring [1, 13]: 90 | Plant response rating, Canola [2, 10]: 0 | Plant response rating, Canola [2, 11]: 0 | Plant response rating, Canola [2, 12]: 0 | Plant response rating, Canola [2, 13]: 0 | Plant response rating, Goosegrass ([3]; 8 g ai/ha, Preemergence): 95 | Plant response rating, Goosegrass ([3]; 16 g ai/ha, Preemergence): 100 | Plant response rating, Goosegrass ([3]; 31 g ai/ha, Preemergence): 100 | Plant response rating, Goosegrass ([3]; 62 g ai/ha, Preemergence): 100 | Plant response rating, Goosegrass ([3]; Postemergence, 8 g ai/ha): 75 | Plant response rating, Goosegrass ([3]; Postemergence, 16 g ai/ha): 80 | Plant response rating, Goosegrass ([3]; Postemergence, 31 g ai/ha): 90 | Plant response rating, Goosegrass ([3]; Postemergence, 62 g ai/ha): 98 | Plant response rating, Crabgrass, Large ([4]; 8 g ai/ha, Preemergence): 65 | Plant response rating, Crabgrass, Large ([4]; 16 g ai/ha, Preemergence): 100 | Plant response rating, Crabgrass, Large ([4]; 31 g ai/ha, Preemergence): 100 | Plant response rating, Crabgrass, Large ([4]; 62 g ai/ha, Preemergence): 100 | Plant response rating, Crabgrass, Large ([4]; Postemergence, 8 g ai/ha): 80 | Plant response rating, Crabgrass, Large ([4]; Postemergence, 16 g ai/ha): 90 | Plant response rating, Crabgrass, Large ([4]; Postemergence, 31 g ai/ha): 95 | Plant response rating, Crabgrass, Large ([4]; Postemergence, 62 g ai/ha): 98 | Plant response rating, Quackgrass ([5]; 16 g ai/ha, Preemergence): 50 | Plant response rating, Quackgrass ([5]; 31 g ai/ha, Preemergence): 90 | Plant response rating, Quackgrass ([5]; 62 g ai/ha, Preemergence): 95 | Plant response rating, Quackgrass ([5]; Postemergence, 8 g ai/ha): 20 | Plant response rating, Quackgrass ([5]; Postemergence, 16 g ai/ha): 35 | Plant response rating, Quackgrass ([5]; Postemergence, 31 g ai/ha): 40 | Plant response rating, Quackgrass ([5]; Postemergence, 62 g ai/ha): 80 | Plant response rating, Bermudagrass ([6]; 8 g ai/ha, Preemergence): 40 | Plant response rating, Bermudagrass ([6]; 16 g ai/ha, Preemergence): 90 | Plant response rating, Bermudagrass ([6]; 31 g ai/ha, Preemergence): 95 | Plant response rating, Bermudagrass ([6]; 62 g ai/ha, Preemergence): 100 | Plant response rating, Bermudagrass ([6]; Postemergence, 8 g ai/ha): 40 | Plant response rating, Bermudagrass ([6]; Postemergence, 16 g ai/ha): 50 | Plant response rating, Bermudagrass ([6]; Postemergence, 31 g ai/ha): 65 | Plant response rating, Bermudagrass ([6]; Postemergence, 62 g ai/ha): 75 | Plant response rating, Signalgrass ([7]; 16 g ai/ha, Preemergence): 98 | Plant response rating, Signalgrass ([7]; 31 g ai/ha, Preemergence): 100 | Plant response rating, Signalgrass ([7]; 62 g ai/ha, Preemergence): 100 | Plant response rating, Signalgrass ([7]; Postemergence, 8 g ai/ha): 80 | Plant response rating, Signalgrass ([7]; Postemergence, 16 g ai/ha): 90 | Plant response rating, Signalgrass ([7]; Postemergence, 31 g ai/ha): 100 | Plant response rating, Signalgrass ([7]; Postemergence, 62 g ai/ha): 100 | Plant response rating, Mustard, Black ([8]; 8 g ai/ha, Preemergence): 0 | Plant response rating, Mustard, Black ([8]; 16 g ai/ha, Preemergence): 0 | Plant response rating, Mustard, Black ([8]; 31 g ai/ha, Preemergence): 0 | Plant response rating, Mustard, Black ([8]; 62 g ai/ha, Preemergence): 0 | Plant response rating, Mustard, Black ([8]; Postemergence, 8 g ai/ha): 0 | Plant response rating, Mustard, Black ([8]; Postemergence, 16 g ai/ha): 0 | Plant response rating, Mustard, Black ([8]; Postemergence, 31 g ai/ha): 0 | Plant response rating, Mustard, Black ([8]; Postemergence, 62 g ai/ha): 0 | Plant response rating, Morningglory ([9]; 16 g ai/ha, Preemergence): 0 | Plant response rating, Morningglory ([9]; 31 g ai/ha, Preemergence): 0 | Plant response rating, Morningglory ([9]; 62 g ai/ha, Preemergence): 0 | Plant response rating, Morningglory ([9]; Postemergence, 8 g ai/ha): 0 | Plant response rating, Morningglory ([9]; Postemergence, 16 g ai/ha): 0 | Plant response rating, Morningglory ([9]; Postemergence, 31 g ai/ha): 0 | Plant response rating, Morningglory ([9]; Postemergence, 62 g ai/ha): 0

Cc1cc(-c2ccc(Cl)cc2)nn1-c1c(OC(=O)CC(C)C)cnn(C)c1=O [Compound 37]
Plant response rating, Wheat, Spring [1, 14]: 15 | Plant response rating, Wheat, Spring [1, 15]: 50 | Plant response rating, Wheat, Spring [1, 16]: 75 | Plant response rating, Wheat, Spring [1, 17]: 95 | Plant response rating, Wheat, Spring [1, 10]: 0 | Plant response rating, Wheat, Spring [1, 11]: 0 | Plant response rating, Wheat, Spring [1, 12]: 90 | Plant response rating, Wheat, Spring [1, 13]: 98 | Plant response rating, Canola [2, 14]: 0 | Plant response rating, Canola [2, 15]: 0 | Plant response rating, Canola [2, 16]: 0 | Plant response rating, Canola [2, 17]: 0 | Plant response rating, Canola [2, 10]: 0 | Plant response rating, Canola [2, 12]: 0 | Plant response rating, Canola [2, 13]: 0
